Results as given in patent US8710097B2, “Flavonoid dimers and methods of making and using such” (The Hong Kong Polytechnic University, priority 2006, dated 2014).
Like-named read-outs stand apart in the source and are kept apart here.

Assays:
[1] = system: MDA435/LCC6 cells; test: Cell proliferation (MTS) assay, parental sensitive cells; type: cell-based; conditions: Homo sapiens, read-out: IC50 (nM) of anticancer drug alone
Description: (§1) Cell proliferation assay.

[2] = system: P388 cells; test: as above; type: cell-based, murine; conditions: Mus musculus
Description: as §1

[3] = system: MDA435/LCC6 MDR cells; test: cells; conditions: for IC50: Homo sapiens; for RF (relative fold): LCC6 MDR, drug alone (reference)
Experimental: (§2) MDA435/LCC6 and P388 (both parent and MDR subtype) were maintained in DMEM and RPMI 1640 culture medium supplemented with 10% FBS, respectively. RPMI 1640 media also contained 100 units/ml penicillin and 100 μg/ml streptomycin. Cells were cultured at 37° C. in a humidified atmosphere with 5% CO2. A solution of 0.05% trypsin-EDTA was used to detach the MDA435/LCC6 (both wild type and MDR subtype) cells.
(§3) Cell proliferation assay. MDA435/LCC6 and P388 (both parent and MDR subtype) cells were seeded at 2000 and 5000 cells per well, respectively, in 96-well plates. Varying concentrations of anticancer drugs (Doxorubicin, Daunorubicin, Vincristine, Vinblastine, taxol, Mitoxantrone) with or without the flavonoid dimers were added in a final volume of 200 μl and cells were grown for 4 and 3 days for MDA435/LCC6 and P388 (both parent and MDR subtype) cells, respectively. For MDA435/LCC6 (both parent and MDR subtype), the corresponding drugs were added after cell attachment (24 hr incubation). To measure cell proliferation, the cell Titer 960 Aqueous Assay (Promega) was used according to the manufacturer's instructions. Briefly, MTS (2 mg/ml) and PMS (0.92 mg/ml) were mixed in a ratio of 20:1. 30 μl MTS/PMS mixture was added into each well and incubated for 2 hours at 37° C. Optical absorbance at 490 nm was then recorded using an ELISA microtiter plate reader (Bio-Rad). Each experiment was done at least in triplicate and repeated twice. Cytotoxicity of the anticancer drugs was expressed as the fraction of the cells survived relative to the untreated DMSO (0.05%) solvent controls.
MDA435/LCC6 is an estrogen-independent human breast cancer cell line. Its MDR subtype (MDA435/LCC6 MDR) was generated by transducing a retroviral vector directing the constitutive expression of the human MDR1 cDNA, producing a cell line with a classical MDR1 resistance pattern (MDA435/LCC6 and MDA435/LCC6MDR1: ascites models of human breast cancer. Br J Cancer 1996, 73, 154-161). The ability of the apigenin dimers of this invention to reverse taxol resistance in MDA435/LCC6 MDR cells were tested. […] Apigenin monomers 10a and 10b at 10 μM were used as the negative controls.

[4] = system: P388/ADR cells; test: cells; conditions: P388/ADR; for IC50: Mus musculus; for RF (relative fold): drug alone (reference)
Experimental: as §2, §3

[5] = P388, drug alone, read-out: IC50 (nM) of anticancer drug alone
[6] = 96 h, read-out: IC50 (nM) of anticancer drug alone, LCC6 MDR, drug alone, no modulator
[7] = read-out: IC50 (nM) of anticancer drug alone
[8] = read-out: IC50 of anticancer drug alone

| Structure (SMILES) | IC50 ([1]; LCC6, drug alone) [nM] | IC50 [2, 5] [nM] | IC50 [3, 6] [nM] | RF (relative fold) [3] | IC60 of doxorubicin alone ([3]; MDA435/LCC6 MDR, no modulator, FIG. 5) [µM] | IC50 [4, 7] [nM] | IC50 [4, 8] [nM] | RF (relative fold) [4] | IC50 ([3]; read-out: Mean IC50 of taxol (nM), LCC6MDR, no analog added (control)) [nM] | IC50 [1] [nM] | IC50 ([2]; P388, read-out: IC50 (nM) of anticancer drug alone) [nM] |
| --- | --- | --- | --- | --- | --- | --- | --- | --- | --- | --- | --- |
| COc1cccc2c1C(=O)c1c(O)c3c(c(O)c1C2=O)C[C@@](O)(C(=O)CO)C[C@@H]3O[C@H]1C[C@H](N)[C@H](O)[C@H](C)O1 [Doxorubicin] | 300 | 22 | 4690 | 1 | 4.7 | 1740 | 1500 | 1 | – | – | – |
| CC[C@]1(O)C[C@H]2CN(CCc3c([nH]c4ccccc34)[C@@](C(=O)OC)(c3cc4c(cc3OC)N(C=O)[C@H]3[C@@](O)(C(=O)OC)[C@H](OC(C)=O)[C@]5(CC)C=CCN6CC[C@]43[C@@H]65)C2)C1 [Vincristine] | 0.29 | 2.2 | 26 | 1 | – | 299 | – | 1 | – | – | – |
| O=C1c2c(O)ccc(O)c2C(=O)c2c(NCCNCCO)ccc(NCCNCCO)c21 [Mitoxantrone] | 0.35 | 4.3 | 1440 | 1 | – | 395 | – | 1 | – | – | – |
| CC(=O)O[C@H]1C(=O)[C@@]2(C)[C@H]([C@H](OC(=O)c3ccccc3)[C@]3(O)C[C@H](OC(=O)[C@H](O)[C@@H](NC(=O)c4ccccc4)c4ccccc4)C(C)=C1C3(C)C)[C@]1(OC(C)=O)CO[C@@H]1C[C@@H]2O [Taxol, paclitaxel] | 2.9 | 22 | 115 | 1 | – | 1640 | – | 1 | 128 | – | – |
| COc1cccc2c1C(=O)c1c(O)c3c(c(O)c1C2=O)C[C@@](O)(C(C)=O)C[C@@H]3O[C@H]1C[C@H](N)[C@H](O)[C@H](C)O1 [Daunorubicin] | – | – | 977 | 1 | – | 2110 | 2100 | 1 | – | 79 | 25 |
